Reference: US20050049305A1, “Use of L-carnitine in the prevention and treatment of hearing loss” (priority 2002, published 2005)
Read-outs that look alike come from different tables or passages of the source. Marks after values point to notes of the source that are not given here.

Tests used:
[1] = Coleman et al. 2001; cited from earlier work
[2] = test system: guinea pigs (mothers and newborns); assay: Cisplatin-induced sensorineural hearing loss, auditory brainstem response (ABR); type: in vivo, guinea pig; conditions: two weeks after delivery, cisplatin 4 mg/kg i.p. once a day for 2 days, LCAR 1 mg/ml in drinking water, mean ±S.E.M.
[3] = test system: outer hair cells (OHCs) of organ of Corti; type: in vivo
Protocol: Pregnant guinea pigs were divided in three groups of 4 each. […] Those from group #2 also received a supplementary dose of LCAR in their drinking water (1 mg/ml ad libitum˜100 mg/kg/day) during the second half of the pregnancy and the immediate postnatal period. Guinea pigs from group #3 (4 mothers & 10 newborns), the control group, were injected with saline solution. Two weeks after delivery, all guinea pigs (mothers and newborns) were anesthetized by intraperitoneal injections of ketamine hydrochloride (60 mg/kg) and xylazine hydrochloride (5 mg/kg), and their auditory brainstem responses (ABR) were measured. They were then euthanized with CO2, and potential cochlear damage was evaluated by confocal microscopy.
The ABR results described in FIG. 1 were independently corroborated by confocal microscopy of the organ of Corti in mothers and newborns. […] The results of FIG. 2 are quantified in Table 1 and FIG. 3.

[4] = test system: HEI-OC1 cells; assay: Cisplatin-induced apoptosis, DNA laddering and TUNEL; type: cell-based, mouse
Excerpt: The HEI-OC1 cell line was cloned from cochlear half-turn explants from of an Immortomouse™. […] They are polygonal squamous cells with a dense perinuclear region containing a dense accumulation of multivesicular structures. These multivesicular structures were also observed in the rest of the cytoplasm, although at a lower density. HEI-OC1 cells co-express markers specific for both sensory and supporting cells. Expression of Math-1 and myosin VIIa by these cells indicate that HEI-OC1 cells are indeed sensory hair cell precursors.
Apoptosis was confirmed using TUNEL (ApoAlert DNA Fragmentation Assay—Clontech, Palo Alto, Calif.).

[5] = test system: HEI-OC1 cells; assay: Caspase-8 and caspase-9 assays in cisplatin-treated cells; type: cell-based, mouse
[6] = test system: newborn guinea pigs; assay: Gentamicin-induced neonatal mortality; type: in vivo, guinea pig
Protocol: (§1) Guinea pigs were used to evaluate the impact of prenatal LCAR supplementation on stress- and gentamicin-induced mortality in newborns because this animal model closely resembles perinatal human physiology. Pregnant guinea pigs (n=25) were divided in five groups. […] In group #2, stress was induced by intraperitoneal injections of normal saline (once daily from days 51 to 57 of gestation). Guinea pigs in group #3 were injected with gentamicin (100 mg/kg once daily from days 51 to 57 of gestation). Finally, groups #4 and #5 were injected with gentamicin as described for group #3, but received LCAR supplementation in their water supply (1 mg/ml˜100 mg/kg/day) starting either 2 weeks prior (Group #4) or simultaneously with gentamicin (Group #5). Newborn mortality was defined as either stillborn or death within the first 48 hrs of life.

[7] = test system: guinea pigs (mothers and newborns); assay: Gentamicin-induced sensorineural hearing loss, ABR; type: in vivo
Protocol: as §1, with “Finally, groups #4 and #5 were injected with gentamicin as described for group #3, but received LCAR supplementation in their water supply (1 mg/ml˜100 mg/kg/day) starting either 2 weeks prior (Group #4) or simultaneously with gentamicin (Group #5).” left out
We investigated the hearing condition and cochlear integrity in the guinea pigs from the five experimental groups described in the above paragraph. Typical ABR recordings from newborn guinea pigs are shown in FIG. 4, while FIG. 5 describes the statistical results. […] Gentamicin (group #3), in contrast, induced a significant increase in hearing threshold in respect to saline (group #2) in mothers (49±3 dB vs. 28±2; P≦0.01) and newborns (38±2 vs. 29±1; P≦0.01).

[8] = test system: outer hair cells (OHCs) and stereocilia bundles; assay: Gentamicin-induced cochlear damage, confocal and scanning electron microscopy; type: in vivo, guinea pig
Protocol: as §1
Confocal and electron microscopy studies indicate that gentamicin induces both sensory cell death and stereocilia disruption in mothers and newborn guinea pigs. […] Whereas in Control animals the three rows of OHCs look generally intact (FIG. 6B), cochleas from guinea pigs treated with gentamicin show “scars” where supporting cells replaced dead OHCs (FIG. 6C). In addition, stereocilia bundles look completely disorganized, with significant structural changes and even “giant” stereocilia (FIG. 6D). […]

[9] = test system: newborn guinea pigs; assay: Noise-induced neonatal mortality; type: in vivo, guinea pig; conditions: group #2: broadband noise 95 SPL 4 h/day, days 50-53 of gestation; LCAR 1 mg/ml in water from day 28
Protocol: (§2) In order to evaluate noise-induced neonatal mortality and the potential impact of prenatal LCAR supplementation, six pregnant guinea pigs were divided into three groups of two animals each. Pregnant guinea pigs in groups #1 and #2 were exposed 4 hours a day during 4 consecutive days to broadband noise (100 Hz-10 kHz) at 95 SPL during days 50 to 53 of gestation. In addition, guinea pigs in group #2 received daily LCAR supplementation in their water supply (1 mg/ml˜100 mg/kg/day) from day 28 of gestation. […] Noise exposure was performed in a sound booth, with the animals in individual plastic cages placed on a wire shelf at ˜0.8 m above the floor. Since at this time of pregnancy guinea pigs spend most of the time resting with the abdomen in contact with the cage floor, the speakers were placed below the shelf, with the sound waves directed toward the cage's floor. Sound pressure levels were measured with a calibrated digital sound level meter (Radio Shack #33-2055) inside the plastic cages.
The experimental protocol assume normal delivery after 59-62 days of pregnancy. In fact, control animals delivered at days 59 and 61, respectively. […] Neonatal mortality—expressed as the number of stillborn or newborn death within the first 48 hrs of life over the total number of animals delivered—was 77% in group #1 ( 7/9), 9% in group #2 ( 1/11), and 0% in group #3 (0/9).

[10] = test system: guinea pigs (mothers and newborns); assay: Noise-induced hearing loss (ABR) and cochlear damage; type: in vivo, guinea pig
Protocol: as §2
Noise-induced cochlear damage and changes in hearing threshold were evaluated in mothers and newborns (ten days after delivery) in the three groups described in the above paragraph. We found moderate threshold shifts (˜9 dB) in mothers exposed to noise (group #1). […] In newborns, we also observed a higher hearing threshold in noise-exposed animals than in those of the control group (36±2 dB group #1 and 30±1 dB group #2 vs. 22±1 dB group #3 control).
Similar damage, but concentrated in smaller regions, was present in cochleas from LCAR-supplemented animals.

[11] = test system: HEI-OC1 cells; assay: LCAR prevention of cisplatin- and gentamicin-induced apoptosis, colorimetric CaspACE assay; type: cell-based, mouse; conditions: 48 hours pre-incubation with 2 mg/ml LCAR
Excerpt: We further investigated whether LCAR was able to prevent cisplatin- and gentamicin-induced apoptosis in HEI-OC1 cells.

[12] = humans, cited from earlier work
[13] = LCAR + Gentamicin = LCAR two weeks prior, Gentamicin + LCAR = simultaneous

CC(=O)O[C@H](CC(=O)[O-])C[N+](C)(C)C [ALCAR, acetyl-L-carnitine]
effect on noise-induced hearing loss [1]: attenuates noise-induced hearing loss

N.N.[Cl][Pt][Cl] [Cisplatin, cisplatin]
average ABR hearing threshold [2]: 46±4 dB
cisplatin-induced inner hair cell (IHC) damage ([3]; guinea pig, in vivo): no significant
loss of OHCs by cochlear turn ([3]; guinea pig, in vivo): significant loss of OHCs in the first and second turn of the cochlea
Total % (damaged/total OHCs) ([3]; mothers): 36.0 (297/824) %
damaged OHC (%) Row #1 ([3]; mothers): 39.6%
damaged OHC (%) Row #2 ([3]; mothers): 32.6%
damaged OHC (%) Row #3 ([3]; mothers): 35.9%
Total % (damaged/total OHCs) ([3]; newborns): 34.9 (443/1268) %
damaged OHC (%) Row #1 ([3]; newborns): 50.2%
damaged OHC (%) Row #2 ([3]; newborns): 37.9%
damaged OHC (%) Row #3 ([3]; newborns): 16.9%
incubation time after which DNA laddering was visible ([4]; 100 μM cisplatin, periods 6 hours to 24 hours): 18 h
cisplatin concentration at which apoptosis (laddering pattern) was first detected ([4]; 24 hours incubation, doses 25 μM to 500 μM): 100 µM
caspase-9 activity ([5]; 12-hour incubation with 100 μM cisplatin): increased about five-fold
caspase-8 activity ([5]; cisplatin-treated HEI-OC1 cells): little change in activity

C[N+](C)(C)C[C@H](O)CC(=O)[O-] [LCAR, L-carnitine]
effect of LCAR supplementation on cisplatin-induced OHC damage ([3]; mothers and newborns): attenuates this cisplatin-induced OHC damage
neonatal mortality (stillborn or death within first 48 hrs) ([6]; group #4: gentamicin plus LCAR 1 mg/ml in water starting 2 weeks prior): 15%
neonatal mortality (stillborn or death within first 48 hrs) ([6]; group #5: gentamicin plus LCAR 1 mg/ml in water starting simultaneously): 9%
effect of LCAR supplementation on gentamicin ototoxicity (ABR) ([7]; LCAR from 28 days of pregnancy (group #4) or coincidental with gentamicin (group #5)): attenuates the ototoxic effects of gentamicin in both mothers and pups
effect on gentamicin-induced OHC death ([8]; LCAR prior vs simultaneous): significantly prevented only in animals supplemented with LCAR two weeks prior gentamicin treatment
effect on gentamicin-induced stereocilia disruption ([8]; LCAR provided either prior or simultaneously with gentamicin): inhibit gentamicin-induced stereocilia disruption
neonatal mortality (stillborn or death within first 48 hrs) [9]: 9%
noise-induced cochlear damage (microscopy) ([10]; LCAR-supplemented noise-exposed animals): significant decrease in cochlear damage
hearing threshold shift in noise-exposed mothers ([10]; mothers, LCAR supplemented, ten days after delivery): no changes were observed
hearing threshold in newborns ([10]; newborns, group #2 noise + LCAR, ten days after delivery): 30±1 dB
gentamicin-induced cell apoptosis (caspase-3, CaspACE) ([11]; then 24 hours 50 μM gentamicin): significantly inhibited
cisplatin-induced cell apoptosis (caspase-3, CaspACE) ([11]; then 24 hours 200 μM cisplatin): significantly inhibited
dietary LCAR absorbed ([12]; dietary): 54-87%
LCAR filtered by the kidney that is reabsorbed [12]: 90-98%

gentamicin
neonatal mortality (stillborn or death within first 48 hrs) ([6]; group #3: gentamicin 100 mg/kg once daily, days 51 to 57 of gestation): 54%
ABR hearing threshold, mothers ([7]; mothers, group #3 gentamicin 100 mg/kg daily, days 51-57 of gestation): 49±3 dB
ABR hearing threshold, newborns ([7]; newborns, group #3 gentamicin given to pregnant mothers): 38±2 dB
OHC death, OHCs % Row #1 [8, 13]: 0.6* %
OHC death, OHCs % Row #2 [8, 13]: 0.9** %
OHC death, OHCs % Row #3 [8, 13]: 0.8** %
OHC death, Total % [8, 13]: 0.7** %
